According to US20250215029A1 (Recludix Pharma, Inc., priority 2022, published 2025):
pIC50: −log10 of the molar value. Where two headings read alike, the source gives them in different places.

Key:
[1] = target: T1, Recombinant STAT3 protein (STAT3 (G127-I722)) (Homo sapiens, UniProt P40763); assay: STAT3 Fluorescence Polarization (FP) Assay; format: binding; details: probe 5-FAM-GpYLPQTV-NH2 2 nM, 45-minute incubation
T1 construct: Recombinant STAT3 protein (STAT3 (G127-I722))
Summary of the method: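 Displacement of a fluorescent phosphotyrosine peptide (5-FAM-GpYLPQTV-NH2, 2 nM) from 25 nM recombinant STAT3 G127-I722 was monitored by FP after 45 min at room temperature.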

[2] = target: T2, Recombinant STAT6 protein (STAT6 (W123-T658)) (Homo sapiens, UniProt P42226); assay: STAT6 Fluorescence Polarization (FP) Assay; format: binding; details: 45-minute incubation
T2 construct: Recombinant STAT6 protein (STAT6 (W123-T658))
T2 sequence (P42226 123-658): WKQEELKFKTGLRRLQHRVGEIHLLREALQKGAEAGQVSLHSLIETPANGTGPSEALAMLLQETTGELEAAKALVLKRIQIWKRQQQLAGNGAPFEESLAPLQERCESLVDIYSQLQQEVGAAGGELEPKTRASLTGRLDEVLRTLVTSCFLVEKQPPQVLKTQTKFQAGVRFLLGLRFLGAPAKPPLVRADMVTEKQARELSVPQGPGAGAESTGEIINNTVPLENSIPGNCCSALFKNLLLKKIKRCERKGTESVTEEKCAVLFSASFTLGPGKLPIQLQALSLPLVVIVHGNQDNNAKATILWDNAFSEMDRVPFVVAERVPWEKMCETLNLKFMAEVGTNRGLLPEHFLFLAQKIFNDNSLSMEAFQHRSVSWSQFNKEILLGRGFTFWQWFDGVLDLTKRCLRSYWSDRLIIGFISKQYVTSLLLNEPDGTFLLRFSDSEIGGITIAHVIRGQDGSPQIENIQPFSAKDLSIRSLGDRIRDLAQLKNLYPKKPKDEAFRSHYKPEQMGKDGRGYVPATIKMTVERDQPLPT
Summary of the method: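 Probe displacement format: serially diluted compounds incubated 45 min at room temperature with 2 nM fluorescent phosphopeptide and 250 nM STAT6 (W123-T658) in pH 7.4 HEPES buffer, 1% DMSO final. Polarization signal plotted against log concentration, IC50 fitted by nonlinear regression.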

[3] = STAT3 (G127-I722) 25 nM, read-out: STAT3 (FP assay IC50 class)
[4] = STAT6 (W123-T658) 250 nM, probe 5-FAM-Ap[…]-NH2 2 nM, read-out: STAT6 (FP assay IC50 class)
[5] = STAT3 25 nM, read-out: STAT3 (FP assay IC50)
[6] = STAT6 250 nM, probe 5-FAM-Ap[…]-NH2 2 nM, read-out: STAT6 (FP assay IC50)

T1 sequence (P40763 127-722): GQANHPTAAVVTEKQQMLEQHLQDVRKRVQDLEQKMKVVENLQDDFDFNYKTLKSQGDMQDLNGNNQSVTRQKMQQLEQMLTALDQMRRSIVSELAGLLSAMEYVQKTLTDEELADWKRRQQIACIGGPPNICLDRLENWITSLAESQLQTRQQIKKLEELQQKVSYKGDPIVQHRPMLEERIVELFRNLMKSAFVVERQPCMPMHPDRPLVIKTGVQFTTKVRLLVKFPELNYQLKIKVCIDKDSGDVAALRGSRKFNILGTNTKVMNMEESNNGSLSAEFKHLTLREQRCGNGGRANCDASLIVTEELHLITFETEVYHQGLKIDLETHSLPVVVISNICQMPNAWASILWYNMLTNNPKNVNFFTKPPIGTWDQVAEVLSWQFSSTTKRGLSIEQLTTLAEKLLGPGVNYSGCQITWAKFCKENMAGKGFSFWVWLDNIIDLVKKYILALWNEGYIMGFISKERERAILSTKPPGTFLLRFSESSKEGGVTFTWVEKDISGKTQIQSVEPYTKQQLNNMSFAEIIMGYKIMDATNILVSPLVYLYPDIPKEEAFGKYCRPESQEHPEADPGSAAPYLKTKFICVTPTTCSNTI

Compound	pIC50 [1, 3]	pIC50 [2, 4]	pIC50 ([2]; STAT6 (W123-T658) 250 nM, probe 5-FAM-ApYKPFQDLI-NH2 2 nM, read-out: STAT6 (FP assay IC50 class))	pIC50 [1, 5]	pIC50 [2, 6]
Cn1cnnc1C1(O)CN(C(=O)[C@@H]2CC[C@@H]3CCC[C@H](NC(=O)c4cc5cc(C(F)(F)P(=O)(O)O)ccc5s4)C(=O)N32)C1 [Compound 807, (difluoro(2-(((3S,6S,9aS)-3-(3-hydroxy-3-(4-methyl-4H-1,2,4-triazol-3-yl)azetidine-1-carbonyl)-5-oxooctahydro-1H-pyrrolo[1,2-a]azepin-6-yl)carbamoyl)benzo [b]thiophen-5-yl)methyl) phosphonic acid]	6.00 to 7.00	5.52 to 6.52	–	–	–
CC[C@@H]1CC[C@H](NC(=O)c2cc3cc(C(F)P(=O)(O)O)ccc3s2)C(=O)N2[C@H](CC[C@H]2C(=O)N2C[C@@H](C#N)[C@H](c3ccccc3)C2)C1 (single isomer, unassigned) [Compound 235]	5.00 to 6.00	≥ 6.52	–	–	–
O=C(N[C@H]1CCC[C@H]2CC[C@@H](C(=O)N3CC(c4nccc(C(F)(F)F)n4)C3)N2C1=O)c1cc2cc(C(F)(F)P(=O)(O)O)ccc2s1 [Compound 812, (difluoro(2-(((3S,6S,9aS)-5-oxo-3-(3-(4-(trifluoromethyl)pyrimidin-2-yl)azetidine-1-carbonyl)octahydro-1H-pyrrolo[1,2-a]azepin-6-yl)carbamoyl)benzo [b]thiophen-5-yl)methyl) phosphonic acid]	6.00 to 7.00	4.52 to 5.52	–	–	–
COc1ncncc1C1CN(C(=O)[C@@H]2CC[C@@H]3CCC[C@H](NC(=O)c4cc5cc(C(F)P(=O)(O)O)ccc5s4)C(=O)N32)C1 (stereo partly drawn) [Compound 764, (fluoro(2-(((3S,6S,9aS)-3-(3-(4-methoxypyrimidin-5-yl)azetidine-1-carbonyl)-5-oxooctahydro-1H-pyrrolo[1,2-a]azepin-6-yl)carbamoyl)benzo [b]thiophen-5-yl)methyl) phosphonic acid]	6.00 to 7.00	4.52 to 5.52	–	–	–
NC(=O)N1C[C@H](NC(=O)[C@@H]2CC[C@@H]3CCCC[C@H](NC(=O)c4cc5cc(C(F)P(=O)(O)O)ccc5s4)C(=O)N32)[C@@H](F)C1 (stereo partly drawn) [Compound 558, ((2-(((3S,6S,10aS)-3-(((3S,4S)-1-carbamoyl-4-fluoropyrrolidin-3-yl)carbamoyl)-5-oxodecahydropyrrolo[1,2-a]azocin-6-yl)carbamoyl)benzo[b]thiophen-5-yl)fluoromethyl)phosphonic acid]	> 7.00	5.52 to 6.52	–	–	–
Cn1cnnc1C1CN(C(=O)[C@@H]2CC[C@@H]3CCC[C@H](NC(=O)c4cc5cc(C(F)(F)P(=O)(O)O)ccc5s4)C(=O)N32)CCO1 (stereo partly drawn) [Compound 1126, (difluoro(2-(((3S,6S,9aS)-3-(2-(4-methyl-4H-1,2,4-triazol-3-yl)morpholine-4-carbonyl)-5-oxooctahydro-1H-pyrrolo[1,2-a]azepin-6-yl)carbamoyl)benzo[b]thiophen-5-yl)methyl)phosphonic acid]	6.00 to 7.00	5.52 to 6.52	–	–	–
O=C(N[C@H]1CCCC[C@H]2CC[C@@H](C(=O)N3C[C@@H](c4ccccc4)CC34CC4)N2C1=O)c1cc2cc(C(F)(F)P(=O)(O)O)ccc2s1 (single isomer, unassigned) [Compound 890]	5.00 to 6.00	–	≥ 6.52	–	–
CC(=O)N1CCOC2(C1)CN(C(=O)[C@@H]1CC[C@@H]3CCC[C@H](NC(=O)c4cc5cc(C(F)P(=O)(O)O)ccc5s4)C(=O)N31)C2 (stereo partly drawn) [Compound 770, ((2-(((3S,6S,9aS)-3-(8-acetyl-5-oxa-2,8-diazaspiro[3.5]nonane-2-carbonyl)-5-oxooctahydro-1H-pyrrolo[1,2-a]azepin-6-yl)carbamoyl)benzo [b]thiophen-5-yl)fluoromethyl) phosphonic acid]	5.00 to 6.00	4.52 to 5.52	–	–	–
CC[C@H]1CC[C@H](NC(=O)c2cc3cc(C(F)P(=O)(O)O)ccc3s2)C(=O)N2[C@H](CC[C@H]2C(=O)N2CC(c3cnccc3OC)C2)C1 (stereo partly drawn) [Compound 245, ((2-(((3S,6S,9S,10aR)-9-ethyl-3-(3-(4-methoxypyridin-3-yl)azetidine-1-carbonyl)-5-oxodecahydropyrrolo[1,2-a]azocin-6-yl)carbamoyl)benzo[b]thiophen-5-yl)fluoromethyl)phosphonic acid]	> 7.00	4.52 to 5.52	–	–	–
CCOC1(c2nncn2C)CN(C(=O)[C@@H]2CC[C@@H]3CCC[C@H](NC(=O)c4cc5cc(C(F)(F)P(=O)(O)O)ccc5s4)C(=O)N32)C1 [Compound 808, ((2-(((3S,6S,9aS)-3-(3-ethoxy-3-(4-methyl-4H-1,2,4-triazol-3-yl)azetidine-1-carbonyl)-5-oxooctahydro-1H-pyrrolo[1,2-a]azepin-6-yl)carbamoyl)benzo [b]thiophen-5-yl)difluoromethyl) phosphonic acid]	6.00 to 7.00	4.52 to 5.52	–	–	–
O=C(N[C@H]1CCC[C@H]2CC[C@@H](C(=O)N3CC(c4cncnc4N4CCOCC4)C3)N2C1=O)c1cc2cc([C@@H](F)P(=O)(O)O)ccc2s1 (single isomer, unassigned) [Compound 861]	> 7.00	4.52 to 5.52	–	–	–
O=C(N[C@H]1CCCC[C@H]2CC[C@@H](C(=O)N3CC(Oc4cccnc4)C3)N2C1=O)c1cc2cc(C(F)(F)P(=O)(O)O)ccc2s1 [Compound 724, (difluoro(2-(((3S,6S,10aS)-5-oxo-3-(3-(pyridin-3-yloxy)azetidine-1-carbonyl)decahydropyrrolo[1,2-a]azocin-6-yl)carbamoyl)benzo [b]thiophen-5-yl)methyl) phosphonic acid]	> 7.00	5.52 to 6.52	–	–	–
O=C(N[C@H]1CC2(CC[C@H]3CC[C@@H](C(=O)N4CC(C(=O)N5CCOCC5)C4)N3C1=O)CC2)c1cc2cc(C(F)(F)P(=O)(O)O)ccc2s1 [Compound 115, (difluoro(2-(((3′S,6′S, 10a′S)-3′-(3-(morpholine-4-carbonyl)azetidine-1-carbonyl)-5′-oxooctahydro-5′H-spiro [cyclopropane-1,8′-pyrrolo[1,2-a]azocin]-6′-yl)carbamoyl)benzo[b]thiophen-5-yl)methyl) phosphonic acid]	–	–	–	> 7.00	4.52 to 5.52
O=C(N[C@H]1CCC[C@H]2CC[C@@H](C(=O)N3CC(c4cnccc4N4CC(C(F)(F)F)C4)C3)N2C1=O)c1cc2cc(CP(=O)(O)O)ccc2s1 [Compound 692, ((2-(((3S,6S,9aS)-5-oxo-3-(3-(4-(3-(trifluoromethyl)azetidin-1-yl)pyridin-3-yl)azetidine-1-carbonyl)octahydro-1H-pyrrolo[1,2-a]azepin-6-yl)carbamoyl)benzo [b]thiophen-5-yl)methyl) phosphonic acid]	> 7.00	4.52 to 5.52	–	–	–
O=C(N[C@H]1CCC[C@H]2CC[C@@H](C(=O)N3CC(c4cccnc4)C3)N2C1=O)c1cc2cc(CP(=O)(O)O)c(F)cc2[nH]1 [Compound 864, ((6-fluoro-2-(((3S,6S,9aS)-5-oxo-3-(3-(pyridin-3-yl)azetidine-1-carbonyl)octahydro-1H-pyrrolo[1,2-a]azepin-6-yl)carbamoyl)-1H-indol-5-yl)methyl) phosphonic acid]	< 5.00	4.52 to 5.52	–	–	–
O=C(N[C@H]1CCC[C@H]2CC[C@@H](C(=O)N3CC(C(=O)N4CCOCC4)C3)N2C1=O)c1cc2cc(C(F)(F)P(=O)(O)O)ccc2s1 [Compound 94, (difluoro(2-(((3S,6S,9aS)-3-(3-(morpholine-4-carbonyl)azetidine-1-carbonyl)-5-oxooctahydro-1H-pyrrolo[1,2-a]azepin-6-yl)carbamoyl)benzo[b]thiophen-5-yl)methyl) phosphonic acid]	–	–	–	6.00 to 7.00	4.52 to 5.52
Cc1ccc(C#N)nc1C1CN(C(=O)[C@@H]2CC[C@@H]3CCC[C@H](NC(=O)c4cc5cc(C(F)(F)P(=O)(O)O)ccc5s4)C(=O)N32)C1 [Compound 820, ((2-(((3S,6S,9aS)-3-(3-(6-cyano-3-methylpyridin-2-yl)azetidine-1-carbonyl)-5-oxooctahydro-1H-pyrrolo[1,2-a]azepin-6-yl)carbamoyl)benzo [b]thiophen-5-yl)difluoromethyl) phosphonic acid]	6.00 to 7.00	4.52 to 5.52	–	–	–
O=C(N[C@H]1CCCC[C@H]2CC[C@@H](C(=O)N3CC(c4ccccc4)CC34CC4)N2C1=O)c1cnc2ccc(CP(=O)(O)O)cc2c1 (stereo partly drawn) [Compound 895, ((3-(((3S,6S,10aS)-5-oxo-3-(6-phenyl-4-azaspiro[2.4]heptane-4-carbonyl)decahydropyrrolo[1,2-a]azocin-6-yl)carbamoyl)quinolin-6-yl)methyl) phosphonic acid]	5.00 to 6.00	5.52 to 6.52	–	–	–
